# In ChEMBL document CHEMBL1130587, “General synthesis of 3-substituted alkenyl GABA as potential anticonvulsants” (Bioorg Med Chem Lett, 1998):
# Calls of active or inactive are those of the source. The rule behind the calls is not given here.
# Assay: Half life at a concentration 1 mM.
# Format: ADME
row,SMILES,half-life at 1000 µM
1,C=CC(CN)CC(=O)O (configuration not stated),39 min
2,C=CC(N)CCC(=O)O (configuration not stated) [VIGABATRIN],0.3 min

# Assay: Compound was evaluated for its ability to increase the […] glutamate decarboxylase at 2.5 mM dose
# Parameters: scale not given: the % may be the effect or the level left
row,SMILES,Activity
1,CC(C)CC(CN)CC(=O)O (configuration not stated),50%

# Assay: Compound was evaluated for the […] glutamate decarboxylase at 2.5 mM dose; No significant activation
row,SMILES,Activity
1,CC(C)/C=C\C(CN)CC(=O)O (configuration not stated),inactive
2,CCC/C=C\C(CN)CC(=O)O (configuration not stated),inactive
3,C/C=C/C(CN)CC(=O)O (configuration not stated),inactive
4,CC(C)=CC(CN)CC(=O)O (configuration not stated),inactive
5,C/C=C\C(CN)CC(=O)O (configuration not stated),inactive
6,C=CC(CN)CC(=O)O (configuration not stated),inactive
7,CC/C=C\C(CN)CC(=O)O (configuration not stated),inactive
8,CC/C=C/C(CN)CC(=O)O (configuration not stated),inactive
9,C/C=C(\C)C(CN)CC(=O)O (configuration not stated),inactive
